Reference: US20260217699A1, “BERBERINE TAUROURSODEOXYCHOLATE COMPOSITIONS AND METHODS THEREOF” (SHENZHEN HIGHTIDE BIOPHARMACEUTICAL LTD., priority 2023, published 2026)

How the values were obtained:
Type in all cases: in vivo, Sprague-Dawley rats
[1] = system: 6-OHDA Stereotactic Injection Induced PD Rats; assay: Apomorphine-asymmetric rotation test
Source text: (§1) The rats were respiratory anesthetized with isoflurane; the head was fixed to ensure that there was no movement and the brain surface was adjusted to be flat; the head was shaved, and a skin incision was made along the sagittal suture to expose the fontanel point; the glass electrode was positioned to the fontanel, and the axes of the coordinate monitor were zeroed to locate the brain areas of the SN and the Str based on the coordinates, in which the SN: AP=−5.0 mm; ML=−1.9 mm; DV=−8.5 mm, and Str: AP=+0.5 mm; ML=−3.0 mm; DV=−6.0 mm. […]; slowly inserted the needle into the localized area of SN and Str, waited for 10 min, and then administered the drug of 6-OHDA at a rate of […] for 10 min, and each animal was given […] of each of SN and Str area, and then the needle was slowly withdrawn after the drug was administered for 10 min, and the PD rat model was established.
The animals were tested three weeks post-administration. 0.5 mg/kg of apomorphine was injected intraperitoneally. The number of rotations of each rat in 30 min were recorded, and the rat appeared to rotate in place toward the opposite side of the injury using the rotating forelimb as a support point. […]
(§2) Experimental Methods: Seventy 180-220g SD male rats were selected and fed for one week for accumulation, and the PD model was established by stereotactic unilateral injection of 6-OHDA in the Substantia Nigra (SN) and Striatum (Str) regions and were randomly divided into five groups according to their body weights including Madopar group (Madopar, 50 mg/kg), BTUDC-L group (BTUDC, 100 mg/kg), BTUDC-M group (BTUDC, 500 mg/kg), and BTUDC-H group (BTUDC, 1000 mg/kg), with 10 animals in each group. […] At the end of the administration, the test articles were evaluated for tolerance in this model and in behavioral apomorphine—asymmetric rotation test, beam test, rotarod test and grip strength test, immunofluorescence staining (TH, Ibal), and cerebrospinal fluid inflammatory factor assays to evaluate the pharmacodynamic effects of the test articles. […]

[2] = system: 6-OHDA Stereotactic Injection Induced PD Rats; assay: Rotarod test; conditions: for Time on the Rod: Mean ± SEM, N=10, Model 63.250 ± 9.871
Source text: as §1
The rotation speed of the rotary rod fatigue meter was set to 20 rpm/min with the test time of 5 min. The animals were placed on the rotating rod in batches for testing, and the time each animal spent on the rod was recorded to evaluate the motor coordination ability of the rats. Information on the rotarod test can also be found in the literature (Bohlen, et al. 2009 J Neurosci Methods 178(1):10-4).
In this study, 16 Sprague Dawley (SD) male rats 180g-220g were used to establish a PD model by stereotactic unilateral injection of 6-OHDA in the substantia nigra (SN) and striatum (Str) brain areas after one week of acclimatization feeding and were randomly divided into 2 groups of 8 rats each. One group was dosed with the test compound BTUDC 500 mg/kg (QD, p.o.) and the other group was the Model group, which was given an equal volume of 0.5% CMC-Na (QD, p.o.) as the test compound group. […]
as §2

IL-1β = assay: Elisa test of cerebrospinal fluid, IL-1β; conditions: rat cerebrospinal fluid; BTUDC-H 1000 mg/kg p.o. Qd 21 days; Mean ± SEM, n=10; Model 41.509 ± 1.298; p<0.05 vs Model
Source text: The cerebrospinal fluid was directly extracted by inserting a needle through the foramen magnum, and the supernatant was collected after centrifugation for ELISA testing. The kit brand was Shanghai Enzyme Link. The product codes of IL-6, IL-1β, and TNF-α were m1064292, m1037361, and m1002859, respectively. Processed the sample according to the instructions of the ELISA detection kit, adjusted the blank well to zero, measured the absorbance (OD value) of each well sequentially at a wavelength of 450 nm, and calculated the sample concentration based on the standard curve and OD value. […]
Dosing volume: 10 mL/kg • 1. […] Histochemical test: After the behavioral test, the cerebrospinal fluid from each animal (N=10) was collected, centrifuged to collect the supernatant, and stored at −80° C. for Elisa test (IL-6, IL-1β, TNF-α), then the animals in each group (N=5) were randomly selected to take the modeling side of the striatum for the detection of neurotransmitters, and the rest of them (N=5) were subjected to cardiac perfusion, which was performed by the process of perfusion, fixation, sedimentation and slicing for immunofluorescence staining and photographed, and the number or area of signals were counted by ImageJ software. • 4. […]

Structure (SMILES): COc1ccc2cc3[n+](cc2c1OC)CCc1cc2c(cc1-3)OCO2.C[C@H](CCC(=O)NCCS(=O)(=O)[O-])[C@H]1CC[C@H]2[C@@H]3[C@@H](O)C[C@@H]4C[C@H](O)CC[C@]4(C)[C@H]3CC[C@]12C [BTUDC, Berberine tauroursodeoxycholate]
- difference in number of ipsilateral rotations within 30 minutes vs Model group ([1]; 500 mg/kg QD p.o. 21 days, p>0.05): no statistically significant difference
- number of rotational circles within 30 min of apomorphine injection vs Model group ([1]; BTUDC-H 1000 mg/kg p.o. Qd 21 days): significantly lower
- Number of Ipsilateral Rotation ([1]; within 30 minutes of apomorphine injection, 500 mg/kg/day p.o. 21 days, 8 rats, Model 126.380 ± 31.681): 109.000 ± 23.670
- Rotarod Test Rod time ([2]; 500 mg/kg QD p.o. 21 days, Model 44.063 ± 4.6049, P < 0.001 vs Model): 252.413 ± 14.4032 s
- Time on the Rod ([2]; BTUDC-H 1000 mg/kg p.o. Qd 21 days, p<0.001 vs Model): 172.625 ± 17.355 s
- Time on the Rod ([2]; BTUDC-L 100 mg/kg p.o. Qd 21 days, no significance mark): 103.220 ± 5.806 s
- Time on the Rod ([2]; BTUDC-M 500 mg/kg p.o. Qd 21 days, p<0.001 vs Model): 148.070 ± 21.760 s
- IL-1β Conc. (IL-1β): 37.251 ± 1.005 pg/mL
